Where a name gives a salt, the structure may show the parent alone.

The text below walks through data of US6673931B2, “Naphthalenyl piperidines as renin inhibitors” (Hoffman-La Roche Inc., priority 1999, dated 2004).

The experiment addresses T1, human renin (Homo sapiens, UniProt P00797).
T1 sequence (P00797 67-406): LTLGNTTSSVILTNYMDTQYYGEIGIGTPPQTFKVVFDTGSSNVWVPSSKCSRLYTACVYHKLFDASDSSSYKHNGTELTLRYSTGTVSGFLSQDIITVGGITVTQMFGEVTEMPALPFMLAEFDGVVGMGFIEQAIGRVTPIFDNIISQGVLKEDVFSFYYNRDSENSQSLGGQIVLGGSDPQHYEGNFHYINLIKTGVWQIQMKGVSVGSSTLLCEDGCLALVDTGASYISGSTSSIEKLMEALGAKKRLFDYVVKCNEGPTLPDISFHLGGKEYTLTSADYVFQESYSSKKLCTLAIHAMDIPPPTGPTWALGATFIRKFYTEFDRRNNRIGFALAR
The experiment is described as follows: In vitro test with pure human renin (angiotensin I production via RIA). Conditions: human tetradecapeptide renin substrate (hTD), pH 7.4, three hours at 37° C. The experiment is classed as biochemical. On the procedure: The tests can be carried out in analogy to those described by D. T. Pals et al. in Hypertension Vol. 8, 1105-1112 (1986) or J. Boger et al. in J. Med. Chem. 28, 1779-1790 (1985) or J. F. Dellaria et al. in J. Med. Chem. 30,2137-2144 (1987) or T. Kokubu et al. in Biochem. Biophys. Res. Commun. 118, 929-933 (1984):
In vitro test with pure human renin:
The test is carried out in Eppendorf test tubes. The incubation mixture consists of (1) 100 μl of human renin in buffer A (0.1 M sodium phosphate solution, pH 7.4, containing 0.1% bovine serum albumin, 0.1% sodium azide and 1 mM ethylenediaminetetraacetic acid), sufficient for a renin activity of 2-3 ng of angiotensin I/ml/hr.; (2) 145 μl of buffer A: (3) 30 μl of 10 mM human tetradecapeptide renin substrate (hTD) in 10 mM hydrochloric acid: (4) 15 μl of dimethyl sulphoxide with or without inhibitor and (5) 10 μl of a 0.03 molar solution of hydroxyquinoline sulphate in water.
The samples are incubated for three hours at 37° C. and, respectively, 4° C. in triplicate. 2×100 μl samples per test tube are used in order to measure the production of angiotensin I via RIA (standard radioimmunoassay; clinical assay solid phase kit). Cross reactivities of the antibody used in the RIA are: angiotensin I 100%; angiotensin II 0.0013%; hTD (angiotensin I-Val-Ile-His-Ser-OH) 0.09%. The production of angiotensin I is determined by the difference between the test at 37° C. and that at 4° C.
The following controls are carried out:
(a) Incubation of hTD samples without renin and without inhibitor at 37° C. and 40° C. The difference between these two values gives the base value of the angiotensin I production.
(b) Incubation of hTD samples with renin, but without inhibitor at 37° C. and 4° C. The difference between these values gives the maximum value of the angiotensin I production.
In each sample the base value of the angiotensin I production is subtracted from the angiotensin I production which is determined. The difference between the maximum value and the base value gives the value of the maximum substrate hydrolysis (=100%) by renin.
The results are given as IC50 values which denote the concentration of the inhibitor at which the enzymatic activity is inhibited by 50%. The IC50 values are determined from a linear regression curve from a logit-log plot.

In general, IC50 refers to the concentration that inhibits the measured activity by half. A low value points to greater potency. For `COC[C@@H](O)CO[C@@H]1CNC[C@H](OCc2cc(OC)c3ccccc3c2)[C@H]1c1ccc(OCCCOCc2ccccc2OC)cc1` [A, (R)-1-methoxy-3-[(3S,4R,5R)-4-[4-[3-(2-methoxy-benzyloxy)-propoxy]-phenyl]-5-(4-methoxy-naphthalen-2-ylmethoxy)-piperidin-3-yloxy]-propan-2-ol], inhibition was half-maximal at 0.06 nM (IC50). This lies in the picomolar range.

With `COCCOC[C@@H](O)CO[C@@H]1CNC[C@H](OCc2cc(OC)c3ccccc3c2)[C@H]1c1ccc(OCCCOCc2ccccc2OC)cc1` [B, (R)-1-[(3S,4R,5R)-4-[4-[3-(2-methoxy-benzyloxy)-propoxy]-phenyl]-5-(4-methoxy-naphthalen-2-ylmethoxy)-piperidin-3-yloxy]-3-(2-methoxy-ethoxy)-propan-2-ol], the IC50 amounted to 0.03 nM.

In the case of `COc1cc(CO[C@H]2CNC[C@@H](OC[C@H](O)CO)[C@@H]2c2ccc(OCCCOc3ccccc3[N+](=O)[O-])cc2)cc2ccccc12` [C, (R)-3-[(3S,4R,5R)-5-(4-methoxy-naphthalen-2-ylmethoxy)-4-[4-[3-(2-nitro-phenoxy)-propoxy]-phenyl]-piperidin-3-yloxy]-propane-1,2-diol], the IC50 came out at 0.08 nM.

`COc1ccccc1COCCCOc1ccc([C@H]2[C@H](CO)CNC[C@@H]2OCc2cc(OC)c3ccccc3c2)cc1` [D, (3S,4R,5R)-[4-[4-[3-(2-methoxy-benzyloxy)-propoxy]-phenyl]-5-(4-methoxy-naphthalen-2-ylmethoxy)-piperidin-3-yl]-methanol] returned an IC50 of 0.02 nM.

For the compound `COc1ccccc1COCCCOc1ccc([C@H]2[C@H](Cn3ccnc3)CNC[C@@H]2OCc2cc(OC)c3ccccc3c2)cc1` [E, (3S,4R,5R)-3-imidazol-1-ylmethyl-4-[4-[3-(2-methoxy-benzyloxy)-propoxy]-phenyl]-5-(4-methoxy-naphthalen-2-ylmethoxy)-piperidine dihydrochloride], the IC50 turned out to be 0.07 nM.
